pEC50: −log10 of the molar value. Calls of active or inactive are those of the source. No rule for the calls is given here.
Experiments:
[1] = molecular target: Tumor necrosis factor receptor superfamily member 10B (Homo sapiens) (UniProt O14763); experiment: TRAIL sensitizers in caspase-8 expressing neuroblastoma cells, dose response, NB7 cells plus caspase-8, luminescence, panel (AID 652002); conditions: NB7 neuroblastoma +caspase-8, TRAIL sensitization, luminescence viability; NB7+Caspase-8; with TRAIL, mean of runs
NB7+Caspase-8 = experiment: as above; conditions: NB7 neuroblastoma +caspase-8, TRAIL sensitization, luminescence viability, with TRAIL
[2] = as above; conditions: NB7 neuroblastoma +caspase-8, no TRAIL, compound-alone cytotoxicity counter-screen, luminescence viability, NB7+Caspase-8; for EC50: mean of runs; for pEC50: single replicate panel EC50
[3] = run 1, single replicate panel EC50
[4] = run 2, single replicate panel EC50

Tumor necrosis factor receptor superfamily member 10B (Homo sapiens), sequence (O14763 whole entry, looked up): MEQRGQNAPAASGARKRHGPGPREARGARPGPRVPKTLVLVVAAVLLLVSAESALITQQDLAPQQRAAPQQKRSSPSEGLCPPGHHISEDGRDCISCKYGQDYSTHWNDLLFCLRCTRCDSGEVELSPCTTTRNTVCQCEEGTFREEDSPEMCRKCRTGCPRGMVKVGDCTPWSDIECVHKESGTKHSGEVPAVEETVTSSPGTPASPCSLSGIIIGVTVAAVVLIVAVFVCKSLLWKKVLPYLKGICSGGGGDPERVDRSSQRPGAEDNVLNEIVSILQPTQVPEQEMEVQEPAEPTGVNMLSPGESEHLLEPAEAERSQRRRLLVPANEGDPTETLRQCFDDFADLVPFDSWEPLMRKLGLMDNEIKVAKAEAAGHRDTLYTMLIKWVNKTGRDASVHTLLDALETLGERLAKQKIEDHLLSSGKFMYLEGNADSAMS

Compound | EC50 [1] | pEC50 (NB7+Caspase-8; [3]) | pEC50 (NB7+Caspase-8; [4]) | EC50 [2] | pEC50 ([2]; run 1) | pEC50 ([2]; run 2)
C/C(=N\NC(=O)c1n[nH]c2c1CCC2)c1ccco1 | > 12.5 µM (inactive) | < 4.90 | < 4.90 | > 12.5 µM (inactive) | < 4.90 | < 4.90
COCCNC(=O)c1cc(-c2ccc(-c3ccccc3)cc2)nc2ccccc12 | inactive | < 4.90 | 5.20 | inactive | < 4.90 | 5.68
O=C(Nc1ccc2c(c1)OCO2)c1ccc2c(c1)OCO2 | inactive | < 4.90 | 5.29 | inactive | 5.16 | 4.95
CCOc1ccc(NC(=O)Nc2cccs2)cc1 | inactive | < 4.90 | 5.16 | inactive | 4.97 | 5.19
CC(C)C(=O)Nc1ccc(NC(=O)c2ccccn2)cn1 | inactive | < 4.90 | 5.01 | inactive | < 4.90 | 4.94
COCCCn1c(C(=O)Nc2ccc3c(c2)OCO3)cc2c(=O)n3cccc(C)c3nc21 | > 12.5 µM (inactive) | < 4.90 | < 4.90 | > 12.5 µM (inactive) | < 4.90 | < 4.90
Cn1c(=O)c2c(SCC(=O)Nc3ccccc3F)nc(C3CC3)nc2n(C)c1=O | > 12.5 µM (inactive) | < 4.90 | < 4.90 | > 12.5 µM (inactive) | < 4.90 | < 4.90
CCOC(=O)c1cnc2c(-c3ccccc3)cnn2c1N | > 12.5 µM (inactive) | < 4.90 | < 4.90 | > 12.5 µM (inactive) | < 4.90 | < 4.90
O/C(=C\c1ccc2ccccc2n1)c1ccc(O)cc1O | inactive | < 4.90 | 5.12 | > 12.5 µM (inactive) | < 4.90 | < 4.90
COc1ccccc1/C=C/C=N/n1c(-c2cc(-c3ccccc3)n[nH]2)n[nH]c1=S | > 12.5 µM (inactive) | < 4.90 | < 4.90 | > 12.5 µM (inactive) | < 4.90 | < 4.90
Cc1ccnc(NC(=O)Nc2ccc3c(c2)OCO3)c1 | > 12.5 µM (inactive) | < 4.90 | < 4.90 | > 12.5 µM (inactive) | < 4.90 | < 4.90
Cc1cccc2nc(=S)n(C(=O)c3ccco3)n12 | > 12.5 µM (inactive) | < 4.90 | < 4.90 | > 12.5 µM (inactive) | < 4.90 | < 4.90
COc1ccc(OCC(=O)N/N=C/C=C/c2ccccc2)cc1 | inactive | < 4.90 | 5.71 | inactive | 4.99 | < 4.90
O=C1Cc2c(-c3ccccc3)cc(-c3cccc(Cl)c3)nc2-c2ccccc2N1 | > 12.5 µM (inactive) | < 4.90 | < 4.90 | > 12.5 µM (inactive) | < 4.90 | < 4.90
O=C(Nc1ccc2[nH]ccc2c1)c1cccs1 | inactive | 5.40 | 5.28 | inactive | 5.15 | 5.33
COc1ccc2sc(-c3ccc(S(C)(=O)=O)cc3)c(C#Cc3cncn3C)c2c1 | > 12.5 µM (inactive) | < 4.90 | < 4.90 | > 12.5 µM (inactive) | < 4.90 | < 4.90
Cc1ccc(NC(=O)CSc2nc3ccc(Nc4nc(N5CCOCC5)nc(N5CCOCC5)n4)cc3s2)cc1 | > 12.5 µM (inactive) | < 4.90 | < 4.90 | > 12.5 µM (inactive) | < 4.90 | < 4.90
O=C(Nc1ccc(Br)cc1F)c1ccc2c(c1)OCCO2 | inactive | < 4.90 | 4.90 | inactive | < 4.90 | 4.95
Cc1cc2nc(-c3ccc(SCC(=O)Nc4nccs4)nc3)[nH]c2cc1C | inactive | 5.29 | < 4.90 | > 12.5 µM (inactive) | < 4.90 | < 4.90
CN1C[C@@H]2[C@@H]3C(=O)N(Cc4ccccc4)C(=O)[C@@H]3[C@](Cc3ccccc3)(C1=O)N2C(=O)c1ccc(C(C)(C)C)cc1 | > 12.5 µM (inactive) | < 4.90 | < 4.90 | > 12.5 µM (inactive) | < 4.90 | < 4.90

— PubChem BioAssay AID652002 (Sanford-Burnham Center for Chemical Genomics, 2013)
